The results in this text go back to article PMC6405842, “Identification of a novel scaffold for a small molecule GPR139 receptor agonist” (Scientific Reports, 2019).

Changes are numbered by the printed parent chain.

Holding throughout (assay type): cell-based
The target in one test is T1, GPR139 (Homo sapiens, UniProt Q6DWJ6).
T1 construct: host or cells: CHO-k1
T1 sequence (Q6DWJ6 1-353): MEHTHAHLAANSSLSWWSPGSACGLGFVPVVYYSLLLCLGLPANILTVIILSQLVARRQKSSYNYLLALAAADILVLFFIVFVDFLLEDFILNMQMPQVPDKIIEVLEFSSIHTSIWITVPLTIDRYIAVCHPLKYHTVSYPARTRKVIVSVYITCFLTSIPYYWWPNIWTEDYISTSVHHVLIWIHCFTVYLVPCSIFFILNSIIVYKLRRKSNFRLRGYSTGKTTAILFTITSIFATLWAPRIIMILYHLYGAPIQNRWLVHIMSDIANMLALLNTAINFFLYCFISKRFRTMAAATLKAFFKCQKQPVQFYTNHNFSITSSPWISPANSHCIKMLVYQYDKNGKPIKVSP
As to the kind of experiment: Phospho-ERK1/2 HTRF assay in CHO-GPR139 cells. The conditions noted are these: ERK phosphorylation. As for the experimental part: All compounds were tested on a CHO-k1 cell line stably expressing GPR139 (CHO-GPR139)[11] kindly provided by H. Lundbeck A/S, Denmark. GPR139-specific responses were assessed using a CHO-k1 cell line stably expressing the muscarinic acetylcholine receptor M1 (CHO-M1) (The Missouri S&T cDNA Resource Center, # CEM100TN00).
Phospho-ERK measurements were made using the Advanced Phospho-ERK1/2 (Thr202/Tyr204) HTRF kit by Cisbio (Codolet, France). Approximately 24 hours prior to the experiment, CHO-GPR139 cells were plated at 50,000 cells/well onto a 96-well plate and cultured as detailed above. Approximately 6 hours later, the media was aspirated, replaced with 50 μL serum-free media, and the cells were allowed to serum starve overnight. The day of the experiment, serial dilutions of the test compounds and controls were made in serum-free media at 2x final concentration. 50 μL of test compounds were added directly to the appropriate wells for 5 minute stimulation at 37 °C. At this point, the media and compounds were rapidly aspirated, lysis/blocking buffer was added, and cells were lysed on a shaker for 30 minutes at room temperature.
The Ca^2+ and ERK responses were normalized as indicated and the concentration response curves were fitted by Prism 6 software (GraphPad) using nonlinear regression in a sigmoidal model with variable slope, as has been previously described.

For the next test, the target named is T2, GPR139 F109A^3×33 (Homo sapiens, UniProt Q6DWJ6, F109A).
T2 construct: myc (N); expressed in transfected cells
T2 sequence (Q6DWJ6 1-353 F109A): T1 sequence (Q6DWJ6 1-353) with F109A
As to the kind of experiment: Ca2+ mobilization on GPR139 mutant F109A. As for the experimental part:
(§1) Figure 4 Ca^2+ mobilization concentration-response curves of AC4 on GPR139 wild-type (WT) and mutants. Data is shown from a representative experiment (mean ± S.D.) out of three independent experiments performed in duplicate. Data is normalized to the Ca^2+ response of buffer (0%) and 100 μM AC4 (100%) on myc-GPR139(WT). Residue numbering in superscript is according to GPCRdb numbering system.
(§2) The mutational studies were performed as previously described.

For the next test, the target named is T3, GPR139 W241H^6×48 (Homo sapiens, UniProt Q6DWJ6, W241H).
T3 construct: myc (N); expressed in transfected cells
T3 sequence (Q6DWJ6 1-353 W241H): T1 sequence (Q6DWJ6 1-353) with W241H
Nature of the test: Ca2+ mobilization on GPR139 mutant W241H. As for the experimental part:
as §1, §2

For `O=C(O)C1CC=CCC1c1nnc(CSc2ccc(Cl)cc2)o1` (centres unmarked) [AC4], on GPR139 (CHO-GPR139 cells, read-out: pEC50 ± SEM (converted)), the EC50 was 178 nM. Moreover, the Emax on GPR139 (expressed relative to FBS positive control) worked out at 77.2 ± 6.53%; on GPR139 W241H^6×48 (mutant W241H, n = 3), 37 ± 3%. Further, at GPR139 F109A^3×33, the “Ca2+ response” value is recorded as “no measurable Ca^2+ response”. Further, at GPR139 W241H^6×48 (printed as lower EC50 than on WT), the “fold change of EC50 on W241H versus WT” value is recorded as 12 fold.
